Calls of active or inactive are those of the source. No cut-off for these calls is given here.
What was measured:
[1] = Octanol-water partition coefficient, logD of the compound at pH 7.4; format: physicochemical
[2] = Cytotoxicity against human HepDE19 cells assessed as reduction in cell viability incubated for 5 days by CCK-8 assay; format: functional; conditions: HepDE19, 120 h, time 5 day
Hepatitis B virus [3] = assay: Antiviral activity against HBV stably transfected in human HepG2.2.15 cells assessed as reduction of HBV DNA replication incubated for 5 days by q-PCR analysis; format: functional, organism-based; conditions: HepG2 2.2.15, 120 h
[4] = Oral bioavailability in rat plasma at 3 mg/kg; format: ADME, organism-based; conditions: for F: in vivo, po, 3 mg/kg
[5] = AUC (0-infinity) in rat plasma at 3 mg/kg,po; format: ADME, organism-based; parameters: dose 3 mg/kg, route po; conditions: for AUC: in vivo
[6] = AUC (0-infinity) in mouse plasma at 3 mg/kg,po; format: ADME, organism-based; parameters: dose 3 mg/kg, route po; conditions: in vivo
hERG = hERG (Homo sapiens, UniProt Q12809); assay: (§1) Inhibition of hERG stably expressed in CHO cells by whole-cell voltage-clamp assay; format: toxicity, cell-based; conditions: human, CHO cells stably expressing hERG
Chain of hERG (Q12809 whole entry): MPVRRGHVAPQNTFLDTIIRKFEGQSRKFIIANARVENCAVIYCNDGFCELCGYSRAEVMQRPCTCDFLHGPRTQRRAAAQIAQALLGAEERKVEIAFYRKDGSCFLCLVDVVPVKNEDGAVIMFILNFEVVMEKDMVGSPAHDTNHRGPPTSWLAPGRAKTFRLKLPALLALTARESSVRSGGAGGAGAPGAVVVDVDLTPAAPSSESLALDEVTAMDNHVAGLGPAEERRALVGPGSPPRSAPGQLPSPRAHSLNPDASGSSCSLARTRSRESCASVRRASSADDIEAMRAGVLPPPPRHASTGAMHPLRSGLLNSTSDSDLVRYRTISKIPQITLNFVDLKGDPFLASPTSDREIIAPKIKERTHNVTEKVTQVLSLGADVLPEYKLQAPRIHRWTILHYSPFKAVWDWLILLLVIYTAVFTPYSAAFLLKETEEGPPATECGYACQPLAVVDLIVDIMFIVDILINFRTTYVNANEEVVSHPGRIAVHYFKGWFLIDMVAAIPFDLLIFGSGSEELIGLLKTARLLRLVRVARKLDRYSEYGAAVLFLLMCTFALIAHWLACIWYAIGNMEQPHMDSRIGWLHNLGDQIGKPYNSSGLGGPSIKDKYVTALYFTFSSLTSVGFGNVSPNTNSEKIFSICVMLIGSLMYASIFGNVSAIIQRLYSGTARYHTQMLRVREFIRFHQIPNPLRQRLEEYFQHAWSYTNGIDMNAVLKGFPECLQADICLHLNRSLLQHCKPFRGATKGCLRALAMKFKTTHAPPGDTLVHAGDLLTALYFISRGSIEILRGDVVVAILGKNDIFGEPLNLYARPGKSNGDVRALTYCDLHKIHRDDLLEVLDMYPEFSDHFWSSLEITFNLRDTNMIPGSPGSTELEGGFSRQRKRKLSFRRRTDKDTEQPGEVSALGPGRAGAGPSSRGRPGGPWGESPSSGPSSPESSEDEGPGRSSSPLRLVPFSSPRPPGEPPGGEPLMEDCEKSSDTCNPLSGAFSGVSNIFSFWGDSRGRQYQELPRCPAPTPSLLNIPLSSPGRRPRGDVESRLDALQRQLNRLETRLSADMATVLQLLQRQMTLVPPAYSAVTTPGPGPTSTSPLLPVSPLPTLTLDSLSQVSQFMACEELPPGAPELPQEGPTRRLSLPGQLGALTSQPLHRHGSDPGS

[7] = biological target: Voltage-gated inwardly rectifying potassium channel KCNH2 (Homo sapiens, UniProt Q12809); assay: as §1; format: toxicity, cell-based
Chain of Voltage-gated inwardly rectifying potassium channel KCNH2 (Q12809 whole entry): as above

[8] = Oral bioavailability in mouse plasma at 3 mg/kg; format: ADME, organism-based; conditions: in vivo
[9] = AUC (0-infinity) in mouse liver at 3 mg/kg,po; format: ADME, organism-based; parameters: dose 3 mg/kg, route po
[10] = Clearance in mouse plasma at 1 mg/kg,iv; format: ADME, organism-based
[11] = Ratio of AUC (0 to infinity) in liver to plasma of mouse at 3 mg/kg,po; format: ADME, organism-based; conditions: read-out: Ratio AUC
[12] = AUC (0-infinity) in rat plasma at 1 mg/kg,iv; format: ADME, organism-based; parameters: dose 1 mg/kg, route iv
[13] = Volume of distribution at steady state in mouse plasma at 1 mg/kg,iv; format: ADME, organism-based; conditions: read-out: Vdss
[14] = Volume of distribution at steady state in rat plasma at 1 mg/kg,iv; format: ADME, organism-based; conditions: read-out: Vdss
[15] = Induction of CYP3A4 mRNA expression level in human hepatocytes at 10 uM incubated for 24 hrs by q-PCR analysis; format: ADME, cell-based, Hepatocyte
[16] = Clearance in rat plasma at 1 mg/kg,iv; format: ADME, organism-based
[17] = Clearance in human liver microsomes at 1 uM measured upto 30 mins in presence of NADPH by LC-MS/MS analysis; format: ADME, Microsome
[18] = AUC (0-infinity) in mouse plasma at 1 mg/kg,iv; format: ADME, organism-based; parameters: dose 1 mg/kg, route iv; conditions: in vivo
[19] = Half life in mouse plasma at 1 mg/kg,iv; format: ADME, organism-based
[20] = Half life in rat plasma at 1 mg/kg,iv; format: ADME, organism-based
Hepatitis B virus [21] = assay: Antiviral activity against AAV-Hepatitis B virus infected in C57BL/6 mouse assessed as reduction of serum HBsAg level at 0.03 mg/kg,po qd for 8 weeks by chemiluminescence immunoassay; format: functional, organism-based
Hepatitis B virus [22] = assay: Antiviral activity against AAV-Hepatitis B virus infected in C57BL/6 mouse assessed as reduction of serum HBeAg level at 0.03 mg/kg,po qd for 8 weeks by chemiluminescence immunoassay; format: functional, organism-based
Hepatitis B virus [23] = assay: Antiviral activity against AAV-Hepatitis B virus infected in C57BL/6 mouse assessed as reduction of serum HBV DNA level at 0.03 mg/kg,po qd for 8 weeks by quantitative real-time PCR analysis; format: functional, organism-based
[24] = Clearance in rat hepatocyte at 2 uM measured upto 120 mins by LC-MS/MS analysis; format: ADME, cell-based; conditions: hepatocytes
[25] = Clearance in human hepatocyte at 2 uM measured upto 120 mins by LC-MS/MS analysis; format: ADME, cell-based; conditions: hepatocytes
Hepatitis B virus [26] = assay: Antiviral activity against AAV-Hepatitis B virus infected in C57BL/6 mouse assessed as reduction of serum HBV DNA level at 6 to 20 mg/kg,po qd for 8 weeks by quantitative real-time PCR analysis; format: functional, organism-based; conditions: dose 6-20 mg/kg
Hepatitis B virus [27] = assay: Antiviral activity against AAV-Hepatitis B virus infected in C57BL/6 mouse assessed as reduction of serum HBeAg level at 6 to 20 mg/kg,po qd for 8 weeks by chemiluminescence immunoassay; format: functional, organism-based; conditions: dose 6-20 mg/kg
Hepatitis B virus [28] = assay: Antiviral activity against AAV-Hepatitis B virus infected in C57BL/6 mouse assessed as reduction of serum HBsAg level at 6 to 20 mg/kg,po qd for 8 weeks by chemiluminescence immunoassay; format: functional, organism-based; conditions: dose 6-20 mg/kg

Structure (SMILES)	logD [1]	CC50 [2] [µM]	EC50 (Hepatitis B virus [3]) [µM]	F [4] [%]	AUC [5] [ng·h/mL]	IC20 (hERG) [µM]	IC50 [7] [µM]	Activity [15] [%]	CLhep predicted at 1 µM [17] [mL/min/kg]	CLhep predicted at 2 µM [24] [mL/min/kg]	CLhep predicted at 2 µM [25] [mL/min/kg]	further results
CCOC(=O)C1=C(CN2CCN3C(=O)N(CC(C)(C)C(=O)O)C[C@@H]3C2)NC(c2nccs2)=N[C@H]1c1ccc(F)c(F)c1C	2	> 100	0.003	7.4	43	–	–	–	–	–	–	–
CCOC(=O)C1=C(CN2C[C@H]3CN(C(C)(C)C)C(=O)N3C[C@@H]2C(=O)O)NC(c2nccs2)=N[C@H]1c1ccc(F)cc1Cl	–	> 100	0.001	1.4	2.7	2.2	10	4	5	–	–	AUC [6]: 0.4 ng·h/mL; F [8]: 0.7%; AUC(0-inf) [9]: 279 ng·h/mL; clearance [10]: 248 mL/min/kg; Kp [11]: 607; AUC ([12]; in vivo): 188 ng·h/mL; Vd [13]: 5.2 L/kg; Vd [14]: 5.4 L/kg; clearance [16]: 87 mL/min/kg; AUC [18]: 65 ng·h/mL; half-life [19]: 30 min; half-life [20]: 90 min
C=C1[C@H](CO)[C@@H](O)C[C@@H]1n1cnc2c(=O)[nH]c(N)nc21	–	–	–	–	–	–	–	–	–	–	–	Activity (Hepatitis B virus [21]): inactive; Activity (Hepatitis B virus [22]): inactive; Activity (Hepatitis B virus [23]): Active
CCOC(=O)C1=C(CN2CCN3C(=O)N(CC(C)(C)C(=O)O)C[C@@H]3C2)NC(c2nccs2)=N[C@H]1c1ccc(F)cc1Cl	1.67	77	0.009	15.6	70	–	–	–	–	22	0.6	AUC [6]: 38 ng·h/mL; F [8]: 12%; clearance [10]: 58 mL/min/kg; Vd [13]: 2.2 L/kg; AUC [18]: 323 ng·h/mL; half-life [19]: 54 min
COC(=O)C1=C(CN2CCN3C(=O)N(CC(C)(C)C(=O)O)C[C@@H]3C2)NC(c2nccs2)=N[C@H]1c1ccc(F)cc1Cl	1.18	> 100	0.006	7.1	26	> 10	> 20	0.6	2	14	9.2	–
CCOC(=O)C1=C(CN2CCN3C(=O)N(CC(C)(C)C(=O)O)C[C@@H]3C2)NC(c2nccs2)=N[C@H]1c1cccc(F)c1Cl	1.69	> 100	0.003	–	–	> 10	> 20	1	0.4	17	7	AUC [6]: 154 ng·h/mL; F [8]: 33%; AUC(0-inf) [9]: 3760 ng·h/mL; clearance [10]: 35 mL/min/kg; Kp [11]: 24; AUC(0-inf) ([12]; plasma): 257 ng·h/mL; Vd [13]: 1.3 L/kg; bioavailability ([4]; plasma): 10%; AUC(0-inf) ([5]; plasma): 26 ng·h/mL; Vd [14]: 4.8 L/kg; clearance [16]: 65 mL/min/kg; AUC [18]: 471 ng·h/mL; half-life [19]: 37.2 min; half-life [20]: 108 min
CCOC(=O)C1=C(CN2C[C@H]3CN(C)C(=O)N3C[C@@H]2C(=O)O)NC(c2nccs2)=N[C@H]1c1cccc(F)c1Cl	–	> 100	0.002	–	–	> 10	> 20	1.7	5.8	–	–	–
COC(=O)C1=C(CN2CCN3C(=O)N(CC(C)(C)C(=O)O)C[C@@H]3C2)NC(c2nccs2)=N[C@H]1c1cccc(F)c1Cl	1.21	> 100	0.014	–	–	–	–	–	–	–	–	–
CCOC(=O)C1=C(CN2CCN3C(=O)N(CC(C)(C)C(=O)O)C[C@@H]3C2)N=C(c2nccs2)N[C@H]1c1cccc(F)c1C [LINVENCORVIR]	–	> 100	0.006	–	–	–	–	–	–	–	–	Activity (Hepatitis B virus [26]): Dose-Dependent Effect; Activity (Hepatitis B virus [27]): Dose-Dependent Effect; Activity (Hepatitis B virus [28]): Dose-Dependent Effect
COC(=O)C1=C(CN2CCN3C(=O)N(CC(C)(C)C(=O)O)C[C@@H]3C2)NC(c2nccs2)=N[C@H]1c1ccc(F)c(F)c1C	1.51	94	0.006	14	43	–	–	–	–	16	2.4	–
COC(=O)C1=C(CN2CCN3C(=O)N(CC4(C(=O)O)CCC4)C[C@@H]3C2)NC(c2nccs2)=N[C@H]1c1ccc(F)cc1Cl	–	> 100	0.011	–	–	7.2	> 20	2.2	2.3	–	–	–
COC(=O)C1=C(CN2CCN3C(=O)N(CC(C)(C)C(=O)O)C[C@@H]3C2)NC(c2nccs2)=N[C@H]1c1cccc(F)c1C	1.26	> 100	0.016	–	–	–	–	–	–	–	–	–
